Assay results reported in ChEMBL document CHEMBL1201862, “PubChem BioAssay data set” (2004).
Calls of active or inactive are those of the source.

Key:
[1] = target: Nonstructural protein 1 (Influenza A virus, UniProt Q194T2); format: functional, Influenza A virus (A/California/07/2009(H1N1))
[2] = target: Voltage-dependent T-type calcium channel subunit alpha-1H (Homo sapiens, UniProt O95180); format: functional;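 further: channel activity triggered by adding a high calcium stimulation buffer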
[3] = target: Phospholipase A2 (Homo sapiens, UniProt P04054); format: functional;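 further: confirmatory dose-response counterscreen on phospholipase A2, testing hits that came from an ultra-high-throughput screen for ATG4B inhibitors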
Phospholipase A2, sequence (P04054 whole entry): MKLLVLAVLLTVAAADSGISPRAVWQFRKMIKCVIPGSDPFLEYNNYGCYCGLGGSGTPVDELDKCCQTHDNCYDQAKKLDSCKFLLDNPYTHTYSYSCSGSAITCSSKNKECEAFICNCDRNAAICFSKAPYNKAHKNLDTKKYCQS

[4] = target: T1, Cysteine protease ATG4B (Homo sapiens, UniProt Q9Y4P1); format: functional;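 further: Fluorescence-based dose-response confirmation assay measuring inhibition of ATG4B activity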
T1 sequence (Q9Y4P1 whole entry): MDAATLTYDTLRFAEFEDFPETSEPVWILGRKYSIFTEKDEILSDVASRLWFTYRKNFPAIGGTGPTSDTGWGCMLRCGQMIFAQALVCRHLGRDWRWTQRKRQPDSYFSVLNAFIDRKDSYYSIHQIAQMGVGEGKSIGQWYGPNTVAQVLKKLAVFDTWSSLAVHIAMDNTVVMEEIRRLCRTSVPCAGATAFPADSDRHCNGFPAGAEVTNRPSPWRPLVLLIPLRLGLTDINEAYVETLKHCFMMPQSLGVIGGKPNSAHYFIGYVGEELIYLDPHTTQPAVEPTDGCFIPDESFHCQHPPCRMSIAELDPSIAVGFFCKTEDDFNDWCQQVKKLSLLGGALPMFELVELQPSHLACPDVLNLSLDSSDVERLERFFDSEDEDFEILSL

[5] = target: Prothrombin (Homo sapiens, UniProt P00734); assay: Thrombin 1536 HTS Dose Response Confirmation. [Related pubchem assays: 1046 (Thrombin 1536 HTS; hits were confirmed in this assay)]; format: functional
[6] = test system: INS1; assay: beta cell apoptosis inhibitors, cytokine rescue, dose response, luminescence, retest (AID 449756); format: functional, cell-based; conditions: Rattus norvegicus;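 further: cell death triggered by IL-1 beta plus TNF-alpha plus IFN-gamma mixture; protective hits raise ATP signal compared with cytokine alone wells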
[7] = Luminescence Cell-Based Dose Retest to Confirm Inhibitors of Cancer Stem Cells. [Related pubchem assays (depositor defined):AID2717, AID2721]; format: functional; conditions: Homo sapiens
[8] = inhibitors of intracellular T. cruzi replication, confirmation, NIH3T3 host cells, beta-gal luminescence (AID 2044); format: functional, cell-based;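 further: intracellular parasites grown in NIH/3T3 mouse fibroblasts as host cells; luminescent beta-galactosidase reporter signal from transgenic T. cruzi replicating inside host cells; inhibitors lower the luminescence signal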
[9] = cytotoxicity toward NIH3T3 fibroblasts, dose response, counter-screen, cell-based, ATP luminescence, mouse fibroblasts (AID 2010); format: functional;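 further: cells exposed to compound for about 90 hours before reading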
[10] = test system: HEK293; assay: inhibitors of LMP1-driven NF-kB reporter, dose response, cell-based, HEK293, luciferase, cherry-pick (AID 588343); format: functional; conditions: Homo sapiens
[11] = test system: Streptococcus sp. 'group A'; assay: growth inhibition of control SK(-) GAS strain, dose response, counter-screen for streptokinase expression inhibitor project, luminescence, kanamycin, BacTiterGlo, confirmation (AID 1900); format: functional, organism-based
[12] = target: T2, Streptokinase A (Streptococcus pyogenes serotype M1, UniProt P10520); assay: S. pyogenes streptokinase expression inhibitors, potency, dose response, plasminogen activation absorbance, OD405 (AID 1914); format: functional, Streptococcus pyogenes M1 GAS;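 further: secreted streptokinase activity via plasminogen activation per viability signal from cell pellet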
T2 sequence (P10520 whole entry): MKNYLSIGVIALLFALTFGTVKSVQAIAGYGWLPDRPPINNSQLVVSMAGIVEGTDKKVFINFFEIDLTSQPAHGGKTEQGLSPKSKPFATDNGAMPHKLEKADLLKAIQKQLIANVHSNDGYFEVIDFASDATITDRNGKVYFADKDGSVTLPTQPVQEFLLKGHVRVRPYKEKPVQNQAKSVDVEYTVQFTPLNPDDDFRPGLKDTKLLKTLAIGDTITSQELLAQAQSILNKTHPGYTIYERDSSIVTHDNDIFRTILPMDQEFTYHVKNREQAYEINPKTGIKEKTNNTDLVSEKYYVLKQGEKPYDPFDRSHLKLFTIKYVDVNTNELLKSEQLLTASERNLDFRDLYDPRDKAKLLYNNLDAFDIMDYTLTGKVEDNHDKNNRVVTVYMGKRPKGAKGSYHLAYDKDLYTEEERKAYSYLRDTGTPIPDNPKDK

[13] = test system: Streptococcus; assay: Group A Streptococcus viability loss, dose response, counter-screen for streptokinase expression inhibitor project, luminescence, BacTiterGlo (AID 1915); format: functional, organism-based;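 further: potency for reduction of bacterial viability or growth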
[14] = NIH-3T3 fibroblast cytotoxicity, dose response, cytotoxicity control, cell-based, fluorescence, Alamar Blue, secondary assay (AID 2327); format: functional;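 further: NIH-3T3 mouse fibroblasts cultured with fluconazole at 8 µg/mL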
[15] = C. albicans growth with fluconazole, confirmation, fluorescence, retest (AID 2467); format: functional, cell-based
[16] = target: T3, Rac GTPase-activating protein 1 (Homo sapiens, UniProt Q9H0H5); assay: MgcRacGAP GTPase-activating activity inhibitors, confirmation, biochemical, ADP Hunter fluorescence, primary and confirmatory (AID 624330); format: functional
T3 sequence (Q9H0H5 whole entry): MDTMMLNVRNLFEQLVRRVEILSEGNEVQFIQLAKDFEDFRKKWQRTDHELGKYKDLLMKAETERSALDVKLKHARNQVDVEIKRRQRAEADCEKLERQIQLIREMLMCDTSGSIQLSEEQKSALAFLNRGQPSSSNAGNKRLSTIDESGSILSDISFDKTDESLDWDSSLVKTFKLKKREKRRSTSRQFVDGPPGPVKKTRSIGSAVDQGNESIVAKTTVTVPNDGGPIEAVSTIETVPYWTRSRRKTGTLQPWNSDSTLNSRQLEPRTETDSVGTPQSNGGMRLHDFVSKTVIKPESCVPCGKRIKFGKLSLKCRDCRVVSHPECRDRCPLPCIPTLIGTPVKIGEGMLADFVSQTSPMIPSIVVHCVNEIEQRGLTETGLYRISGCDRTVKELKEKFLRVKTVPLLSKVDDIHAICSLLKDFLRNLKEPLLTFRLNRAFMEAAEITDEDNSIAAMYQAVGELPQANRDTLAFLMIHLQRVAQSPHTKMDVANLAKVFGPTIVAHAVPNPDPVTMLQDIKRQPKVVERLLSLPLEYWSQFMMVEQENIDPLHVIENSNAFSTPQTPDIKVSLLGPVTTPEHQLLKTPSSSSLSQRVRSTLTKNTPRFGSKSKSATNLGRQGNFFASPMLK

[17] = HeLa cell cytotoxicity, dose response, cytotoxicity control for MgcRacGAP inhibitor project (AID 624300); format: functional
[18] = growth suppression of PTEN-null colon cells, dose response, cell-based, HCT116 PTEN knockout (AID 1047); format: functional;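 further: HCT116 colon tumor cells with PTEN knocked out; cells exposed to compound for 60 hours before readout; potency for loss of cell viability measured by luminescence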
[19] = growth suppression of beta-catenin-knockout colon cells, dose response, cell-based, HCT116, human colon tumor (AID 1045); format: functional;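 further: HCT116 colon tumor cells with beta catenin knocked out; cells exposed to compound for 60 hours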
[20] = target: T4, Protein RecA (Mycobacterium tuberculosis, UniProt P9WHJ3); assay: Fluorescence Cell-Free Homogeneous Dose Retest to Identify Inhibitors of RecA-Intein Splicing Activity. [Related pubchem assays (depositor defined):AID2097, AID2223, AID489010, AID492950]; format: functional
T4 sequence (P9WHJ3 whole entry): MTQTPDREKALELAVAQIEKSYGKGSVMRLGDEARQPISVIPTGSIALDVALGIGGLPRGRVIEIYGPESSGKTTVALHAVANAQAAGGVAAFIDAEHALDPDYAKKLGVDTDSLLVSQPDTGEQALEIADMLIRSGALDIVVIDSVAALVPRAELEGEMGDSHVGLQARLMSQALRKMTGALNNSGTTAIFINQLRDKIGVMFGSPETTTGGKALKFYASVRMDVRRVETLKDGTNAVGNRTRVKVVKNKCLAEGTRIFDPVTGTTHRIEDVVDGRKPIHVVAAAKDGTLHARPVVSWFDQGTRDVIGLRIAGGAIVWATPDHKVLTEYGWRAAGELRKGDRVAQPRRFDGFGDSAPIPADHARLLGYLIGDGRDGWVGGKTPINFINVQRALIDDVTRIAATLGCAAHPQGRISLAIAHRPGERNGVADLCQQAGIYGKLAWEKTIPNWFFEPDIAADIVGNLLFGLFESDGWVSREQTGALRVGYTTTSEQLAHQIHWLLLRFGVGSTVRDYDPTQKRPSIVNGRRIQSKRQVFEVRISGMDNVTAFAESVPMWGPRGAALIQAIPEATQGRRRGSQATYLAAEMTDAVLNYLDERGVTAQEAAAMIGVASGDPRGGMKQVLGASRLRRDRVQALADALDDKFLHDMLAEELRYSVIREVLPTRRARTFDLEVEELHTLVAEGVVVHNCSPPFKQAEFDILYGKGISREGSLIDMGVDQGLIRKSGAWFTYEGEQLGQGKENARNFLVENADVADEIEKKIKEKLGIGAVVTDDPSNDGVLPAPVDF

[21] = target: T5, Replicative DNA helicase DnaB (Mycobacterium tuberculosis, UniProt P9WMR3); assay: DnaB intein splicing inhibitors, dose response, biochemical, cell-free fluorescence (AID 449749); format: functional
T5 sequence (P9WMR3 whole entry): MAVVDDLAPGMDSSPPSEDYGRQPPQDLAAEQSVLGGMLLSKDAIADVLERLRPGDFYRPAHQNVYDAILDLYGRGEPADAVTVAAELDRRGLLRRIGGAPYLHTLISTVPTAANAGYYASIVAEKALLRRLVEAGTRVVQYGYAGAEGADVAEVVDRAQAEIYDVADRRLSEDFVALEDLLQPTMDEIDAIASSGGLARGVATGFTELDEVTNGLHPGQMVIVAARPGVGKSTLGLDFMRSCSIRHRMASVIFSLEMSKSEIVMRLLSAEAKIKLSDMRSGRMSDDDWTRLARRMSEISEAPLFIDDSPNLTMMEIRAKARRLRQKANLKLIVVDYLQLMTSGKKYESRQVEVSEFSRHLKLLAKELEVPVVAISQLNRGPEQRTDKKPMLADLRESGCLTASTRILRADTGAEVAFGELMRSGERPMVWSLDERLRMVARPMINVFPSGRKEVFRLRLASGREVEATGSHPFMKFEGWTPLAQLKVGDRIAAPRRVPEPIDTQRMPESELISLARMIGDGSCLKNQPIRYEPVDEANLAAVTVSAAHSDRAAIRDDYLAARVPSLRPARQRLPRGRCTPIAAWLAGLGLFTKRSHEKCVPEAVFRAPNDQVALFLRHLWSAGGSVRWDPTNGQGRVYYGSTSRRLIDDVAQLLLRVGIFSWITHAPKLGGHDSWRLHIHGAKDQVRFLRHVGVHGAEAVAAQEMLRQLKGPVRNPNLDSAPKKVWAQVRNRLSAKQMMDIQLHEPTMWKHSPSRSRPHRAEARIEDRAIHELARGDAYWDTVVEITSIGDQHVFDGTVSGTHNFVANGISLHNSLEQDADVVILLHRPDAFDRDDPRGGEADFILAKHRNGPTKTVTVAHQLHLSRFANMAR

Voltage-dependent T-type calcium channel subunit alpha-1H, sequence (O95180 whole entry): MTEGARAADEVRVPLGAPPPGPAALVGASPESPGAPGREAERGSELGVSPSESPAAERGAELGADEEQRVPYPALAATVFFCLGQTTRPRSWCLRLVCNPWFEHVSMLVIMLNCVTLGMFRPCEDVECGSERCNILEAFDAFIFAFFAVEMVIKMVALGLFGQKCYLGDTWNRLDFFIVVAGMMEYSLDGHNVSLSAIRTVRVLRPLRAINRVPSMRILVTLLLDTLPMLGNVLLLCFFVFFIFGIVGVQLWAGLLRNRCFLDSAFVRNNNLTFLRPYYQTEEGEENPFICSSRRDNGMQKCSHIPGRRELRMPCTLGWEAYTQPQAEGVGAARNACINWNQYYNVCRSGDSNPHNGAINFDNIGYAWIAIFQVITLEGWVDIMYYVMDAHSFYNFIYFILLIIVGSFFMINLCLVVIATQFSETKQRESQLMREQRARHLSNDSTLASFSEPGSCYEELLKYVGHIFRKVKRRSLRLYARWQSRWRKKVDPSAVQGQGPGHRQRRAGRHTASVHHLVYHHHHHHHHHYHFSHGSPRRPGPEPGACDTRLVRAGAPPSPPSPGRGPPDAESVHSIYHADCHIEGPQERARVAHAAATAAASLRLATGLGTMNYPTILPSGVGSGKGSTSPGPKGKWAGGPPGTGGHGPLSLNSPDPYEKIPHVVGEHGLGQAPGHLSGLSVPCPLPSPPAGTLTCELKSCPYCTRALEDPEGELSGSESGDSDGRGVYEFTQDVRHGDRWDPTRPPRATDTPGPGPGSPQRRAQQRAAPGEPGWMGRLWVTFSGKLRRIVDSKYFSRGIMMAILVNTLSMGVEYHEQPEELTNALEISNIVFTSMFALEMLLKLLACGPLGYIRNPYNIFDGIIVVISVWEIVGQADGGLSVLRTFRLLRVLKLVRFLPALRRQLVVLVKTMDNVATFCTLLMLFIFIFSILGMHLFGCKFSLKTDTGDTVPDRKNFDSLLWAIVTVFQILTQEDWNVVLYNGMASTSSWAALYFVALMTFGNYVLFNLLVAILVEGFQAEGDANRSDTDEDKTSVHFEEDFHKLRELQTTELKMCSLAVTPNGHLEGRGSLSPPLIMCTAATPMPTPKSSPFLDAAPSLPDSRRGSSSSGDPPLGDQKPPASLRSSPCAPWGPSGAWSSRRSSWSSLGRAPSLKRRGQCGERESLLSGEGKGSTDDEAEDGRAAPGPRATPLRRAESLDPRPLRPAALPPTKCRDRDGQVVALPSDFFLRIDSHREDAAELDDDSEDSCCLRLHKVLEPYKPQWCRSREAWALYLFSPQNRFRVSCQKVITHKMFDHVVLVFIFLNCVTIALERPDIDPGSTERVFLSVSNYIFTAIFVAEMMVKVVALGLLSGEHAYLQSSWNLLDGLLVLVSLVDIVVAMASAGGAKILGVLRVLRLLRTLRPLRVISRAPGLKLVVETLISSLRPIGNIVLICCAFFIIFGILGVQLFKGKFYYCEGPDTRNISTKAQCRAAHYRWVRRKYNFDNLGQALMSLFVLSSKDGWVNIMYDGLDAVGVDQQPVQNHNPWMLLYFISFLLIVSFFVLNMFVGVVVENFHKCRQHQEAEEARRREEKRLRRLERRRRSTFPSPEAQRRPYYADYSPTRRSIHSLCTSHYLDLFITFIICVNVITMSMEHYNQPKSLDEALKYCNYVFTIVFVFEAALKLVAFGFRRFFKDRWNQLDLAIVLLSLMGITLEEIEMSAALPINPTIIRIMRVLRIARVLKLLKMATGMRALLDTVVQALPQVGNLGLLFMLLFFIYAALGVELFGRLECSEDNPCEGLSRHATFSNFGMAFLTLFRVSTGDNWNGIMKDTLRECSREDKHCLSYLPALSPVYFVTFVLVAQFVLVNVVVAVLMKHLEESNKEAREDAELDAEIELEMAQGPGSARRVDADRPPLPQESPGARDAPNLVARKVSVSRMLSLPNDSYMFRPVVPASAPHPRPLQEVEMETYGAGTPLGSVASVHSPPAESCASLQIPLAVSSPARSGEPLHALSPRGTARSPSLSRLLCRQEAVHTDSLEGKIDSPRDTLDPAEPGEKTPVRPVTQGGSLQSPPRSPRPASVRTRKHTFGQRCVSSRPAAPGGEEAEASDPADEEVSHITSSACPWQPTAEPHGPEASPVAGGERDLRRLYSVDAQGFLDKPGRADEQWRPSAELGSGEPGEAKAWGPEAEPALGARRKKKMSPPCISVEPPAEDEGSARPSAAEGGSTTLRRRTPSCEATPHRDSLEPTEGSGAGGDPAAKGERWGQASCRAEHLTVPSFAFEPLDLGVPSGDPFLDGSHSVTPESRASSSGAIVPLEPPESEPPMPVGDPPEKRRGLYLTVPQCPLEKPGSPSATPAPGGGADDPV
Nonstructural protein 1, sequence (Q194T2 whole entry): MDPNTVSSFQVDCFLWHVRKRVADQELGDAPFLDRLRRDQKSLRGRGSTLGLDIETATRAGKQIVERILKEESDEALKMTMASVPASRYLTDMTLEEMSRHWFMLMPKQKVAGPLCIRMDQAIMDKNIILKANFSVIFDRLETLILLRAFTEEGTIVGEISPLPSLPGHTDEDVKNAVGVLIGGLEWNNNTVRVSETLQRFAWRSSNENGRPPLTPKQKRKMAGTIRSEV

Clc1ccc(-c2cnnc(-c3ccccn3)n2)cc1
IC50 [1]: 14.2 µM (active)

O=C(Nc1cc(C(F)(F)F)cc(C(F)(F)F)c1)c1ccc(Cn2cc(C(F)(F)F)ccc2=O)cc1
EC50 [2]: 5.74 µM (active)

CN(C)Cc1ccc(F)cc1Sc1cc(Cl)ccc1Cl
IC50 [3]: 16.4 µM (active) | IC50 [4]: 16.9 µM (active)

CC(=O)c1ccc(O)c(CSC2=NCCS2)c1
IC50 [5]: > 50 µM (not active)

COc1ccc(C(C(O)C(=O)c2c[nH]c3ccccc23)N2CCN(c3ccccc3)CC2)cc1 (stereo not given)
EC50 [2]: 8.16 µM (active)

CCCC(=O)n1nc(-c2ccc(Cl)cc2)nc1SC
IC50 [5]: 3.57 µM (active)

NC(=O)CSc1nc2cc([N+](=O)[O-])ccc2[nH]1
IC50 [3]: 9.62 µM (active) | IC50 [4]: 12.4 µM (active)

CCC1=NN(C(=O)c2cccc(Br)c2)C(O)(c2ccc(Br)cc2)C1 (stereo not given)
IC50 [3]: 8.71 µM (active) | AC50 [6]: 4.84 µM (active) | IC50 [4]: 12.1 µM (active) | AC50 [7]: 0.634 µM (active)

O=C(Nc1nc(-c2cccs2)cs1)c1ccco1
IC50 [5]: > 50 µM (not active)

O=C1C=C(O)c2c(O)cccc2C1=O
IC50 [5]: > 50 µM (not active)

O=[N+]([O-])c1nn(-c2ccc3c(c2)OCCO3)[n+]([O-])c1NC1CCCCCC1
EC50 [8]: 0.681 µM (active) | IC50 [1]: 44.6 µM (active) | EC50 [9]: > 30 µM (not active)

CCCc1c(C(=O)N/N=C(\C)c2ccccn2)nnn1-c1nonc1N
AC50 [10]: 9.69 µM (active)

S=C(NCC1CCCCC1)Nc1ccc(Oc2ccccc2)cc1
EC50 [8]: 2.05 µM (active) | EC50 [11]: 10.9 µM (active) | AC50 [10]: 170 µM (active) | EC50 [9]: > 60 µM (not active) | EC50 [12]: 4.05 µM (active) | AC50 [7]: 4.58 µM (active) | EC50 [13]: 24.3 µM (active)

COc1ccc(CNc2nc(-c3cccnc3)nn2C(C)=O)cc1
IC50 [5]: 0.0252 µM (active)

C=CCn1c(O)c(N=NC(S)=Nc2ccccc2C)c2cc(S(=O)(=O)N3CCOCC3)ccc21
EC50 [14]: 20.4 µM (inconclusive) | AC50 [10]: 2.93 µM (active) | EC50 [15]: 2.06 µM (active)

O=C(CCC1COc2ccccc2O1)Nc1ccc(Cl)cn1 (stereo not given)
EC50 [2]: 2.94 µM (active)

Cc1ccc(C(=O)O)cc1/N=C/c1cc(Br)cc(Br)c1O
IC50 [3]: 18 µM (active) | IC50 [4]: 9.89 µM (active)

Cc1ccc(-c2nnn(CC(=O)N(c3ccccc3F)C(CC(C)C)C(=O)NCC3CCCO3)n2)cc1 (stereo not given)
EC50 [2]: 5.3 µM (active)

CCOc1cc(CNc2ccc(N3CCCCC3)cc2)cc(Br)c1OCC(=O)NC(C)(C)C
EC50 [8]: 1.46 µM (active) | EC50 [9]: > 60 µM (inconclusive) | IC50 [16]: 20.8 µM (active) | CC50 [17]: 100 µM (active)

COc1ccc(/C=C2\SC(=O)N(CCCC(=O)Nc3ccc(C(=O)O)cc3)C2=O)cc1
AC50 [10]: 2.37 µM (active)

O=C(Nc1nc2ccccc2s1)C1CCCN1S(=O)(=O)c1ccc(Cl)cc1 (stereo not given)
EC50 [2]: 5.86 µM (active)

N#Cc1ccc(-c2ccc(F)cc2)nc1Sc1ccc(F)cc1
EC50 [18]: 20.6 µM (active) | EC50 [19]: 28.7 µM (active)

COc1cccc(C(=O)Nc2n[nH]c(SCc3ccc(Cl)cc3)n2)c1
EC50 [20]: 1.29 µM (active) | IC50 [5]: 2.94 µM (active) | AC50 [21]: 2.78 µM (active)
